According to ChEMBL document CHEMBL5465560, “Selectivity Literature for EUbOPEN Chemogenomic Library” (2024):
One block for each compound: values may come before it.

Experiments:
[1] = molecular target: T1, Aurora kinase A (Homo sapiens) (UniProt O14965); assay: Selectivity interaction (Kinase panel (Z-LYTE Assay)) EUB0001632a STK6; conditions: at 10 µM
T1 sequence (whole entry): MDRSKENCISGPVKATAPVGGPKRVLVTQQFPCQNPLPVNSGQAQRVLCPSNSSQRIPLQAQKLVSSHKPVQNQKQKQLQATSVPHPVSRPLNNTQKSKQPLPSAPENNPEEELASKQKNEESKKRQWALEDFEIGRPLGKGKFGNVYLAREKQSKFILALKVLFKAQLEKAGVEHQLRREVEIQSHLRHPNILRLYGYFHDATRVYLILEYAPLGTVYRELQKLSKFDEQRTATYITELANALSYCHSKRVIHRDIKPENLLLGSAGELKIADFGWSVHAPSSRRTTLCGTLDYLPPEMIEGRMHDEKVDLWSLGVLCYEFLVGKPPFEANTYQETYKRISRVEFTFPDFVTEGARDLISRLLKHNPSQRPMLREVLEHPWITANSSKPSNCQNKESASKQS

[2] = molecular target: T2, RNA 5'-monophosphate methyltransferase (Homo sapiens) (UniProt Q7Z5W3); assay: Selectivity interaction (Methyltransferase screen (radiometric assays, panel of 8 PRMTs, 21 protein lysine methyltransferases, 3 DNA methyltransferases, and one RNA methyltransferase)) EUB0000272b BCDIN3D
T2 sequence (whole entry): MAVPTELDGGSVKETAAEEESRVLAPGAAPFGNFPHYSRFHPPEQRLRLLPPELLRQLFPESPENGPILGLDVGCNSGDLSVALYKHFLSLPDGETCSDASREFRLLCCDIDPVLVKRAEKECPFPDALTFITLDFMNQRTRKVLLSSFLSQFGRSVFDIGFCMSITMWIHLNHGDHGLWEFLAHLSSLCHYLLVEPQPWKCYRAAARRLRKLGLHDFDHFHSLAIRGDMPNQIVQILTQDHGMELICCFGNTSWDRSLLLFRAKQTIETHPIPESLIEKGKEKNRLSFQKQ

[3] = molecular target: T3, Ephrin type-B receptor 4 (Homo sapiens) (UniProt P54760); assay: Selectivity interaction (KinomeScan (DiscoverX)) EUB0000045b EPHB4
T3 sequence (whole entry): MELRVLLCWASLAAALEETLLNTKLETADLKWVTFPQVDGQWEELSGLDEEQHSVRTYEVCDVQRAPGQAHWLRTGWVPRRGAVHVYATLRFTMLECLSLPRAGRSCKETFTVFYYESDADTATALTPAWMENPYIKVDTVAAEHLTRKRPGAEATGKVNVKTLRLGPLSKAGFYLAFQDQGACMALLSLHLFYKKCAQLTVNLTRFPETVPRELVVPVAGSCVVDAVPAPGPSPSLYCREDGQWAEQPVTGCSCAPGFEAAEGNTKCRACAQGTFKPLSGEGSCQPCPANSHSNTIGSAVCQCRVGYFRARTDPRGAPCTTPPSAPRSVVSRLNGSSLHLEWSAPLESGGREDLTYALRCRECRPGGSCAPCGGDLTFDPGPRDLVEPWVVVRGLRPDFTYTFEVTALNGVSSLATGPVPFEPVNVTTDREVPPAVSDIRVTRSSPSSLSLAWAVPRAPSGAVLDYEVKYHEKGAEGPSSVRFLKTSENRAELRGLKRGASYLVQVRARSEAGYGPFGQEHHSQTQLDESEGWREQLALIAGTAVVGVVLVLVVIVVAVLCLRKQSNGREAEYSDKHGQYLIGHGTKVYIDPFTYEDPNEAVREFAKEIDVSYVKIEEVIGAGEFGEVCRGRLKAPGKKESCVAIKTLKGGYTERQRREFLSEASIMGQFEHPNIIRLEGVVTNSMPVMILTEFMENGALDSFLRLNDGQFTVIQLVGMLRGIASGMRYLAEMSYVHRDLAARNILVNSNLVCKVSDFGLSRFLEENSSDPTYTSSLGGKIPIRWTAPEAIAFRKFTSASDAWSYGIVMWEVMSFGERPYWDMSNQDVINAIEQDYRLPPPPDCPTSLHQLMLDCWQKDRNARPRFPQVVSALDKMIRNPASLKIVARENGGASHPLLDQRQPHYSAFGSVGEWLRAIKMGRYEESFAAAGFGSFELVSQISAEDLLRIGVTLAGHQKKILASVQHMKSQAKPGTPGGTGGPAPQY

% of control [1]: 9.63%
SMILES: Cn1cc(-n2cnc3c(NCc4nc5cc(Cl)c(Cl)cc5[nH]4)nc(N4CCOCC4)nc32)cn1

% of activity ([2]; at 1 µM): 96%
% of activity ([2]; at 10 µM): 99.3%
SMILES: Cc1cc(C)cc([C@H]2c3cc(C)ccc3NC(=O)CN2C(=O)c2ccc(Br)s2)c1

SMILES: C=CC(=O)Nc1cc(-n2c(=O)ccc3cnc4ccc(-c5ccc(NS(C)(=O)=O)cc5)cc4c32)ccc1C
% of control ([3]; at 1 µM): 100%
% of control ([3]; at 10 µM): 100%
